Results reported in article PMC6688628, “N-Substituted Pyrrole Derivative 12m Inhibits HIV-1 Entry by Targeting Gp41 of HIV-1 Envelope Glycoprotein” (Frontiers in Pharmacology, 2019).

What was measured:
HIV-1 93/BR/020 = test: microbe, parasite or virus in culture; assay type: cell-based; conditions: Human immunodeficiency virus 1, primary strain 93/BR/020, luciferase readout, mean ± SD
Protocol: (§1) The HIV-1 replication-inhibiting activity of compounds was determined as previously described ([Li et al., 2013]). Briefly, 1 × 10^4 TZM-bl or MT-2 cells were infected with primary HIV-1 strains or T20-resistant HIV-1 strains (100 TCID50) in 200 µl of RPMI-1640 medium containing 10% FBS in the presence or absence of compounds at graded concentrations for 12 h. The culture medium was replaced with fresh medium without the compounds. After culture for an additional 48 h, supernatants or cells were collected from each well. For the primary HIV-1 strains, the cells were treated using a luciferase kit. Briefly, the cells were lysed with the lysis reagent and were transferred into a 96-well flat-bottom luminometer plate after three washes with phosphate-buffered saline (PBS) (Costar Corning Inc., Corning, NY), followed by addition of the luciferase substrate included in the luciferase kit (Promega Corp., Madison, WI). The luciferase activity was measured immediately by an Ultra 384 microplate reader (Tecan, Research Triangle Park, NC). T20 was used as a positive control. For the T20-resistant HIV-1 strains, 100 µl of culture supernatant was mixed with 100 µl of 5% Triton X-100. Then, those virus lysates were assayed for p24 antigen by enzyme linked immunosorbent assay (ELISA) as previously described ([Li et al., 2010]). Absorbance at 450 nm was recorded in an ELISA reader (Ultra 384, Tecan). EC50 values were calculated using the computer program CalcuSyn ([Chou and Talalay, 1984]).

HIV-1 BCF02 = test: microbe, parasite or virus in culture; assay type: cell-based; conditions: Human immunodeficiency virus 1, primary strain BCF02, luciferase readout, mean ± SD
Protocol: as §1

HIV-1 US4 (GS 007) = test: microbe, parasite or virus in culture; assay type: cell-based; conditions: Human immunodeficiency virus 1, primary strain US4 (GS 007), luciferase readout, mean ± SD
Protocol: as §1

[1] = tested on: T20-resistant HIV-1 strains; test: Anti-HIV-1 activity, panel of T20-resistant mutants; assay type: cell-based; conditions: Human immunodeficiency virus 1; range over T20-resistant mutants; read-out: EC50 values against a series of T20-resistant mutants
Protocol: as §1, with “Then, those virus lysates were assayed for p24 antigen by enzyme linked immunosorbent assay (ELISA) as previously described ([Li et al., 2010]).” left out

[2] = XTT assay, U87-CD4-CXCR4 cells; assay type: cell-based; conditions: human
Protocol: The in vitro cell viability of NSPD-12m on HIV-1 target cells (U87-CD4-CXCR4, U87-CD4-CCR5, TZM-bl, and MT-2 cells) and HIV effector cells (CHO-WT cells) was analyzed by an XTT colorimetric assay. Briefly, 100 µl of 5 × 10^5/ml cells was mixed and incubated with 100 µl of NSPD-12m at graded concentrations at 37°C for 3 days. Then, 50 µl of XTT solution (1 mg/ml) containing 0.02 µM of phenazinemethosulphate (PMS) was added to each well, and the cells were incubated at 37°C for another 4 h. The absorbance at 450 nm was measured with an ELISA reader. The 50% cytotoxicity concentrations (CC50) were calculated using the CalcuSyn software ([Chou and Talalay, 1984]).

HIV-1 X4 virus = test: Cell-cell HIV-1 X4 transmission, MT-2 to CEMx174 5.25 M7 cells; assay type: cell-based; conditions: Human immunodeficiency virus 1; infected MT-2 to CEMx174 5.25 M7 cells; luciferase
Protocol: Inhibition of fusion between MT-2 cells infected by HIV-1 strains (X4 and R5 viruses) with CEMx174 5.25 M7 cells, which express CD4 and both coreceptors, CXCR4 and CCR5, was determined by a luciferase assay. Briefly, MT-2 cells were infected with the corresponding HIV-1 strains for 7 days. The infected MT-2 cells were washed three times and resuspended in culture medium to 2 × 10^5/ml. Then, 50 μl of a compound at graded concentrations in triplicate was incubated with equal volumes of HIV-1-infected MT-2 cells at 37°C for 30 min. Next, 100 μl of CEMx174 5.25 M7 cells (4 × 10^5/ml) was added, and the cells were incubated at 37°C for 3 days. The cells were collected, washed, and lysed with the lysing reagent included in the luciferase kit (Promega, Corp., Madison, Wis). Aliquots of cell lysates were transferred to 96-well flat-bottom luminometer plates (Costar), followed by the addition of luciferase substrate (Promega). Luciferase activity was measured using an Ultra 384 luminometer. ADS-J1 was used as a positive control for all cell–cell fusion assays.

gp41 6-HB (N36/C34) = molecular target: T1, gp41 6-HB (N36/C34) (Human immunodeficiency virus type 1 group M subtype B, UniProt P04578); test: CD spectroscopy of N36/C34 alpha-helical conformation; assay type: biochemical, HIV-1; conditions: 20-µM compound preincubated with N36 before the addition of C34
T1 construct: purchased GL Biochem of China; host or cells: chemical solid-phase Fmoc synthesis
Protocol: The effects of NSPD-12m on the formation of the secondary α-helix structures of the peptides N36 and C34 were detected by CD spectroscopy as described previously ([Liu et al., 2005]; [Zhang et al., 2018]). Briefly, the peptide N36 (10 µM in PBS) was incubated with NSPD-12m (20 µM in PBS) or PBS at 37°C for 30 min, followed by incubation with the peptide C34 (10 µM in PBS) at 37°C for another 30 min. To further confirm that NSPD-12m inhibited the formation of secondary α-helix structures, the peptide N36 was incubated with the peptide C34 at 37°C for 30 min before the addition of the compound. ADS-J1 (40 µM in PBS) was used as a positive control. The reported CD spectra of the peptides N36 and C34 and the mixture of N36, C34, and the compounds described previously were obtained at 25°C using a Jasco 715 spectropolarimeter (Jasco Inc., Japan) with a 5.0-nm bandwidth, 0.1-nm resolution, 0.1-cm path length, 4.0-s response time, and 50-nm/min scanning speed. The spectra were corrected by the subtraction of a blank corresponding to the solvent. The quantities of compounds with α-helix structures were estimated from the molar ellipticity at 222 nm using Jasco software utilities.

[3] = molecular target: T2, synthetic peptide N36 (gp41 NHR) (Human immunodeficiency virus type 1 group M subtype B, UniProt P04578); test: Surface plasmon resonance binding to N36; design: species or system HIV-1; conditions: SPR, compound immobilized on chip, N36 injected, 25°C; read-out: binding affinity (KD) to N36
T2 construct: purchased GL Biochem of China; host or cells: chemical solid-phase Fmoc synthesis
Protocol: N36 at different concentrations (125, 250, and 500 µM in PBS) was injected at a flow rate of 2 µl/s with an association and dissociation time of 300 s at 25°C. At the end of each cycle, glycine–HCl buffer (pH 2.0) at a flow rate of 3 µl/s was used to regenerate the surface of the sensor chip platform with a regeneration time of 300 s. The binding affinity (KD) was calculated using the PlexeraDE data analysis module and GraphPad Prism 5.0 software.

[4] = tested on: HIV-1 NL4-3(36G)V38A,N42T; conditions: T20-resistant NL4-3(36G)V38A,N42T; p24 ELISA; mean ± SD

T2 sequence (P04578 546-581): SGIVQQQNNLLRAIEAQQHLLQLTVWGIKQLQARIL
T1 sequence (P04578 546-581): as above

Compound: Cc1cc(/C=C2\SC(=S)N(Cc3ccccc3C(F)(F)F)C2=O)c(C)n1-c1ccc(O)c(C(=O)O)c1 [NSPD-12m]
- IC50 (HIV-1 93/BR/020): 4.91 ± 0.13 µM
- IC90 (HIV-1 93/BR/020; read-out: IC90): 6.76 ± 1.56 µM
- IC50 (HIV-1 BCF02; read-out: IC50): 1.79 ± 0.238 µM
- IC90 (HIV-1 BCF02; read-out: IC90): 3.48 ± 1.09 µM
- IC50 (HIV-1 US4 (GS 007); read-out: IC50): 2.34 ± 0.353 µM
- IC90 (HIV-1 US4 (GS 007); read-out: IC90): 5.27 ± 2.73 µM
- EC50 [1]: 15.7 to 24.7 µM
- CC50 at 3 days [2]: 101.4 ± 0.48 µM
- CC90 at 3 days [2]: 122.5 ± 0.59 µM
- EC50 (HIV-1 X4 virus): 3.64 ± 0.34 µM
- α-helical content of the 6-HB (CD, 222 nm) (gp41 6-HB (N36/C34)): clearly reduced
- Kd [3]: 0.411 µM
- IC50 [4]: 16.3 ± 3.03 µM
- IC90 [4]: 33.9 ± 6.14 µM
